Where two headings read alike, the source gives them in different places.
Assay: Example 3: plasma pharmacokinetics of two sequential doses
Type: in vivo, human
Conditions: for Tmax / AUC / AUC(0-t) / Cmax / half-life: male, human, 2400 mg
Method: Up to approximately 24 healthy male volunteers were randomly assigned (1:1) to double-blind treatment with either compound A 2400 mg or placebo. Each subject received one dose of either 2400 mg compound A or placebo on Day 1 and a second dose of the same treatment on Day 3.
The initial dose of double-blind treatment was administered between 7:00 AM and 10:00 AM on Day 1. The second (Day 3) dose was given 48 hours ±30 minutes following the first (Day 1) dose. Predose assessments were performed up to 120 minutes prior to dosing on Day 1 and Day 3, except for the predose dECG, which was performed within 30 minutes prior to dosing on both Day 1 and Day 3, the predose qEEG and ERP, which was performed within 60 minutes prior to dosing on Day 1 and Day 3, and the predose PK blood draw, which was performed within 15 minutes prior to dosing on Day 3.
Pharmacodynamics were assessed via qEEG and event-related potential (ERP). Frequent PK sampling was included in the study to evaluate the PK of two doses of compound A given approximately 48 hours apart. A PK/PD model was developed that measures qEEG and ERP changes as a function of plasma concentration of compound A as well as determines whether there are any PK/PD differences between Dose 1 and Dose 2 effects.
Subjects were required to refrain from eating or drinking from 2 hours prior to dose administration until two hours after dose administration.

[1] = healthy males, 2400 mg oral, Day 1, N 11
[2] = healthy males, 2400 mg oral, second dose, Day 3, N 11

CC(C)(C[C@H](N)C(=O)O)C(F)F [Compound A, (S)-2-amino-5,5-difluoro-4,4-dimethylpentanoic acid]
accumulation between Day 1 and Day 3 (2400 mg oral 48 hours apart): negligible accumulation
difference in geometric mean exposure (Cmax, AUC(0-24), AUC(0-48)) between Day 1 and Day 3 (2400 mg oral on Days 1 and 3): ≤ 5%
time of peak concentration for the mean profile (2400 mg oral, day 1, post-dose): 1 h
time of highest concentration for the mean profile (2400 mg oral, day 3, post-dose): 0.5 h
mean plasma concentration versus time profiles on days 1 and 3 (FIG. 13): nearly superimposable
AUC(0-24), Max [1]: 416,000 h*ng/mL
AUC(0-24), Min [1]: 298,000 h*ng/mL
AUC(0-48), Max [1]: 525,000 h*ng/mL
AUC(0-48), Min [1]: 357,000 h*ng/mL
AUClast, Max [1]: 481,000 h*ng/mL
AUClast, Min [1]: 298,000 h*ng/mL
Cmax, Max [1]: 57,700 ng/mL
Cmax, Min [1]: 23,300 ng/mL
T1/2, Max [1]: 15.2 h
T1/2, Min [1]: 9.20 h
AUC(0-24), Max [2]: 449,000 h*ng/mL
AUC(0-24), Min [2]: 294,000 h*ng/mL
AUC(0-48), Max [2]: 584,000 h*ng/mL
AUC(0-48), Min [2]: 353,000 h*ng/mL
AUClast, Max [2]: 632,000 h*ng/mL
AUClast, Min [2]: 369,000 h*ng/mL
Cmax, Max [2]: 52,300 ng/mL
Cmax, Min [2]: 35,700 ng/mL
T1/2, Max [2]: 21.1 h
T1/2, Min [2]: 10.9 h
Tmax (oral, all subjects, both dosing days (Days 1 and 3), read-out: individual Tmax values): 0.5 to 1 h
AUC (po, healthy males, 2400 mg oral, Day 1, N 11, read-out: AUC(0-24), Geometric mean): 355 µg·h/mL
AUC (po, healthy males, 2400 mg oral, Day 1, N 11, read-out: AUC(0-24), Mean): 358 µg·h/mL
AUC (po, healthy males, 2400 mg oral, Day 1, N 11, read-out: AUC(0-24), Median): 366 µg·h/mL
AUC (po, healthy males, 2400 mg oral, Day 1, N 11, read-out: AUC(0-48), Geometric mean): 438 µg·h/mL
AUC (po, healthy males, 2400 mg oral, Day 1, N 11, read-out: AUC(0-48), Mean): 442 µg·h/mL
AUC (po, healthy males, 2400 mg oral, Day 1, N 11, read-out: AUC(0-48), Median): 453 µg·h/mL
AUC(0-t) (po, healthy males, 2400 mg oral, Day 1, N 11, read-out: AUClast, Geometric mean): 405 µg·h/mL
AUC(0-t) (po, healthy males, 2400 mg oral, Day 1, N 11, read-out: AUClast, Mean): 409 µg·h/mL
AUC(0-t) (po, healthy males, 2400 mg oral, Day 1, N 11, read-out: AUClast, Median): 422 µg·h/mL
Cmax (po, healthy males, 2400 mg oral, Day 1, N 11, read-out: Cmax, Geometric mean): 43900 ng/mL
Cmax (po, healthy males, 2400 mg oral, Day 1, N 11, read-out: Cmax, Mean): 45100 ng/mL
Cmax (po, healthy males, 2400 mg oral, Day 1, N 11, read-out: Cmax, Median): 47000 ng/mL
half-life (po, healthy males, 2400 mg oral, Day 1, N 11, read-out: T1/2, Geometric mean (converted)): 12.1 h
half-life (po, healthy males, 2400 mg oral, Day 1, N 11, read-out: T1/2, Mean (converted)): 12.2 h
half-life (po, healthy males, 2400 mg oral, Day 1, N 11, read-out: T1/2, Median (converted)): 12 h
Tmax (po, healthy males, 2400 mg oral, Day 1, N 11, read-out: Tmax, Median): 1 h
AUC (po, healthy males, 2400 mg oral, second dose, Day 3, N 11, read-out: AUC(0-24), Geometric mean): 350 µg·h/mL
AUC (po, healthy males, 2400 mg oral, second dose, Day 3, N 11, read-out: AUC(0-24), Mean): 353 µg·h/mL
AUC (po, healthy males, 2400 mg oral, second dose, Day 3, N 11, read-out: AUC(0-24), Median): 340 µg·h/mL
AUC (po, healthy males, 2400 mg oral, second dose, Day 3, N 11, read-out: AUC(0-48), Geometric mean): 430 µg·h/mL
AUC (po, healthy males, 2400 mg oral, second dose, Day 3, N 11, read-out: AUC(0-48), Mean): 436 µg·h/mL
AUC (po, healthy males, 2400 mg oral, second dose, Day 3, N 11, read-out: AUC(0-48), Median): 428 µg·h/mL
AUC(0-t) (po, healthy males, 2400 mg oral, second dose, Day 3, N 11, read-out: AUClast, Geometric mean): 455 µg·h/mL
AUC(0-t) (po, healthy males, 2400 mg oral, second dose, Day 3, N 11, read-out: AUClast, Mean): 462 µg·h/mL
AUC(0-t) (po, healthy males, 2400 mg oral, second dose, Day 3, N 11, read-out: AUClast, Median): 460 µg·h/mL
Cmax (po, healthy males, 2400 mg oral, second dose, Day 3, N 11, read-out: Cmax, Geometric mean): 45300 ng/mL
Cmax (po, healthy males, 2400 mg oral, second dose, Day 3, N 11, read-out: Cmax, Mean): 45600 ng/mL
Cmax (po, healthy males, 2400 mg oral, second dose, Day 3, N 11, read-out: Cmax, Median): 47400 ng/mL
half-life (po, healthy males, 2400 mg oral, second dose, Day 3, N 11, read-out: T1/2, Geometric mean (converted)): 15.3 h
half-life (po, healthy males, 2400 mg oral, second dose, Day 3, N 11, read-out: T1/2, Mean (converted)): 15.6 h
half-life (po, healthy males, 2400 mg oral, second dose, Day 3, N 11, read-out: T1/2, Median (converted)): 15.6 h
Tmax (po, healthy males, 2400 mg oral, second dose, Day 3, N 11, read-out: Tmax, Median): 0.5 h

Reference: US11723890B2, “Methods of treatment using an mTORC1 modulator” (Navitor Pharmaceuticals, Inc., priority 2019, dated 2023)
